# Experimental data as given in patent US9937227B2, “Humanin, analogs and cancer treatment methods and uses thereof” (LOS ANGELES BIOMEDICAL RESEARCH INSTITUTE AT HARBOR-UCLA …, priority 2014, dated 2018).
# Like-named read-outs stand apart in the source and are kept apart here.
# Legend:
# male germ cells [1] = settings: 24 hours
# Protocol: Young adult mice (12-13 weeks) were randomly divided into 4 groups with 4 or 5 mice per group and received an IP injection: control (Con) (saline), HN (40 mg/Kg BW), CP (200 mg/Kg BW), and the combination of CP+HN. These experiments were repeated four times. In the CP+HN group, mice received an injection of HN followed by an injection of CP about 15 minutes later. Twenty-four hours after injections animals were sacrificed using 5% pentobarbital (200 mg/kg BW) IP injection. Blood was collected and one testis was removed, weighed and frozen in liquid nitrogen. The mouse was next perfused with saline and then subsequently perfuse-fixed with Bouin's solution as previously described and apoptosis was assessed by TUNEL assay (Lue, et al., 2009).
# For detection of apoptosis in testicular sections, the paraffin embedded testis tissue was cut into 5 micron sections and stained with the TdT-mediated dUTP nick-end labeling assay (TUNEL Apoptosis Detection Kit, Millipore, Billerica, Mass.) to detect apoptosis of germ cells in the testis (Lue, et al., 2009). Testicular sections assayed by TUNEL were examined under a light microscope and the apoptotic germ cells were blindly and manually counted. The seminiferous tubules in the testis section under the microscope were grouped as stages IX-IV (early-late stages of spermatogenesis) and V-VIII (middle stages of spermatogenesis). Germ cell apoptosis was quantified as the number of seminiferous tubules containing apoptotic spermatogonia, spermatoctyes, round spermatids and spermatozoa per 100 seminiferous tubules (Drumond, et al., 2011).
# male germ cells [2] = assay type: in vivo, mouse; settings: B16 tumor-bearing mice; CP 200 mg/Kg single IP, 2 weeks
# Protocol: (§1) A total of 25 young adult mice (10-12 weeks) were randomly divided into 5 groups (n=5 per group). Five mice were used as control. Twenty mice were inoculated intravenously with B16 murine melanoma cells (2×10^5 cells/mouse). Among these 20 tumor-inoculated mice, 5 mice received no further treatment. After one week, the remaining 15 mice were divided into 3 groups and injected with: 1) HNG daily IP (5 mg/Kg body weight) for 2 weeks; 2) CP (200 mg/Kg body weight IP single injection); 3) combined CP with HNG treatment (same doses as above). All mice were sacrificed 3 weeks after tumor inoculation, and 2 weeks after HNG and/or CP treatment. The animals were sacrificed with 5% pentobarbital (200 mg/kg body weight) IP injection after which blood was collected from the right atrium of the heart. One of the testes from each mouse was immersed fixed in Bouin's solution, and the mice were perfused with saline and subsequently perfuse-fixed with 5% glutaraldehyde in 0.05 M cacodylate buffer (pH 7.4). The lungs were dissected out and post fixed in 5% glutaraldehyde solution for 24 hours and stored in cacodylate buffer at 4° C. for the subsequent tumor count (Lue, et al., 2010; Lue, et al., 2009).
# [3] = tested on: B16 murine melanoma cells; assay: Metastatic lung tumors in mouse B16 melanoma model (Experiments 3 and 4); assay type: in vivo
# Protocol: as §1
# Experiment 3 was repeated after inoculation of B16 melanoma tumor at week 1 and then treated with the following treatment starting at week 2 (n=5 mice per group): 1). No treatment; 2). HNG IP injections 5 mg/Kg daily; 3) CP 200 mg/Kg single IP injection; 4) HNG 5 mg/Kg/day+CP; 5). HNG IP injections 15 mg/Kg daily; and 6). HNG 15 mg/Kg/day+CP. All animals were euthanized and perfused with 4% paraformaldehyde at the end of week 3. Lungs and testes were collected and processed as in experiment 3. Methods
# B16 melanoma tumors in the lung were quantified by counting the number of tumors on the surface of the lungs under stereomicroscopy (Collisson, et al., 2003; Craft, et al., 2005). The size of the tumor was measured using histomorphometry and expressed as average size of tumor. The appearance of the melanoma cells were reviewed and characterized by an expert pathologist.
# IGF-1 = assay: Plasma IGF-1 in mice bearing metastatic lung melanomas; assay type: in vivo, mouse; settings: 14 days; HNG 5 mg/kg/day IP, CP 200 mg/kg IP single injection
# From the text: These preliminary data support a concept that HN is a caloric restriction mimetic, and its cytotoxic effects in cancer may be mediated by lowering IGF-1 without increasing GH and insulin.
# male germ cells [4] = tested on: male germ cells
compound,measurement,setting,value
"O=P1(N(CCCl)CCCl)NCCCO1 (stereo not drawn) [CP, cyclophosphamide monohydrate]",germ cell apoptosis compared to control,"male germ cells [1]; early-late stages of spermatogenesis, CP 200 mg/Kg IP",significantly increased germ cell apoptosis
same,germ cell apoptosis compared to control,"male germ cells [1]; middle stages (V-VIII), CP 200 mg/Kg IP",significant increase in apoptosis
same,germ cell apoptosis compared to control,"male germ cells [1]; testicular cross sections, HN 40 mg/Kg or CP 200 mg/Kg single IP",significantly increased germ cell apoptosis
same,germ cell apoptosis compared to control and HNG treated mice,male germ cells [2],further significantly increased
same,"testis weight in comparison with control, non-treated tumor bearing and HNG treated mice",male germ cells [2],significantly decreased
same,number of metastatic tumors on the surface of the lungs vs non-treated tumor-bearing mice,"[3]; Experiment 3, HNG 5 mg/Kg daily IP 2 weeks or CP 200 mg/Kg single IP",decreased number of tumors
same,size of the melanoma metastasis on the surface of the lungs,"[3]; Experiment 3, HNG 5 mg/Kg daily or CP 200 mg/Kg single IP",decreased number of tumors but also tumor size
same,number of lung tumors vs non-treated tumor-bearing mice,"[3]; Experiment 4, HNG 5 mg/kg BW daily or CP 200 mg/Kg single IP",significantly decreased both the number and size of the tumors
same,size of the lung tumors vs non-treated,"[3]; Experiment 4, HNG 5 and 15 mg/kg BW, CP 200 mg/Kg",significantly decreased both the number and size of the tumors
same,lung metastatic melanoma histology (differentiation of melanoma cells),"[3]; HNG 5 mg/kg BW, CP, or combination",minor differentiation
same,plasma IGF-1 levels,IGF-1,modestly suppressed
same,germ cell apoptosis compared to control,"male germ cells [4]; early (I-VI) and late (IX-XIV) stages, EDS pre-treated",did not significantly increased
same,germ cell apoptosis compared to control,"male germ cells [4]; early (I-VI) and late (IX-XIV) stages, no EDS, CP 70 mg/kg BW IP, 12 hours",significantly increased
same,CP induced germ cell apoptosis in EDS pre-treated rats vs without EDS,male germ cells [4]; early and late stages,significantly lower
same,germ cell apoptosis compared to control,"male germ cells [4]; middle (VII-VIII) stages, no EDS, CP 70 mg/kg BW",did not increase
